Reference: the supplement of paper PMC13380429

Tests used:
Caco-2 [1] = test: drug sensitivity score (DSS) for viability; higher = more toxic; extreme values may be limits of the assay; settings: 72 h
HepG2 [2] = test: as above; settings: 72 h
Calu-3 [3] = test: as above; settings: 72 h
Vero E6 [4] = test: as above; settings: 72 h
U2OS [5] = test: as above; settings: 72 h
A549-ACE2 [6] = test: drug-induced phospholipidosis relative to tamoxifen; higher = more phospholipidosis
Caco-2 [7] = test: cell viability relative to DMSO; higher = less toxic; settings: 72 h
HepG2 [8] = test: as above; settings: 72 h
Calu-3 [9] = test: as above; settings: 72 h
Vero E6 [10] = test: as above; settings: 72 h
U2OS [11] = test: as above; settings: 72 h
[12] = test system: A549-ACE2 infected with SARS-CoV-2; test: cell count relative to DMSO; higher = less toxic; settings: 24 h
[13] = test system: A549-ACE2 infected with SARS-CoV-2; test: morphology score (similarity to uninfected cells); higher = more like uninfected cells; settings: 24 h
[14] = test system: A549-ACE2 infected with SARS-CoV-2; test: SARS-CoV-2 infection rate relative to DMSO; higher = more infection; settings: 24 h
A549-ACE2 [15] = test: phospholipidosis EC50; higher = less potent phospholipidosis inducer
Caco-2 [16] = test: relative viability EC50 (midpoint between 100% and the lowest measured viability); higher = less toxic; settings: 72 h
HepG2 [17] = test: as above; settings: 72 h
Calu-3 [18] = test: as above; settings: 72 h
Vero E6 [19] = test: as above; settings: 72 h
U2OS [20] = test: as above; settings: 72 h

Cn1cc(C2=C(c3ccc(Cl)cc3Cl)C(=O)NC2=O)c2ccccc21
Settings	drug sensitivity score	relative viability EC50 [µM]
Caco-2 [1]	0	–
Caco-2 [16]	–	> 10
Calu-3 [3]	0	–
Calu-3 [18]	–	> 10
HepG2 [2]	0.3	–
HepG2 [17]	–	> 10
U2OS [5]	0	–
U2OS [20]	–	> 10
Vero E6 [4]	0	–
Vero E6 [19]	–	> 10

drug-induced phospholipidosis [%], A549-ACE2 [6]
Settings	0.3 µM	0.833333 µM	3.33333 µM	6.66667 µM	10 µM	30 µM
24 h	3.42	26.9	57	74.1	90.2	107
48 h	4.24	11.7	45.3	55.7	59.6	55.3
72 h	4.76	5.3	35.3	56	56.2	54.6

Settings	SARS-CoV-2 infection rate [%]	cell count [%]	cell viability [%]	morphology score	phospholipidosis EC50 [µM]
A549-ACE2 [15], 24 h	–	–	–	–	6.83
A549-ACE2 [15], 48 h	–	–	–	–	1.87
A549-ACE2 [15], 72 h	–	–	–	–	3.22
Caco-2 [7], 1 nM	–	–	105	–	–
Caco-2 [7], 10 nM	–	–	99.9	–	–
Caco-2 [7], 100 nM	–	–	92.5	–	–
Caco-2 [7], 1000 nM	–	–	105	–	–
Caco-2 [7], 10000 nM	–	–	93.1	–	–
Calu-3 [9], 1 nM	–	–	113	–	–
Calu-3 [9], 10 nM	–	–	108	–	–
Calu-3 [9], 100 nM	–	–	99.5	–	–
Calu-3 [9], 1000 nM	–	–	122	–	–
Calu-3 [9], 10000 nM	–	–	103	–	–
HepG2 [8], 1 nM	–	–	98.8	–	–
HepG2 [8], 10 nM	–	–	95	–	–
HepG2 [8], 100 nM	–	–	100	–	–
HepG2 [8], 1000 nM	–	–	95.1	–	–
HepG2 [8], 10000 nM	–	–	87.2	–	–
U2OS [11], 1 nM	–	–	100	–	–
U2OS [11], 10 nM	–	–	97.9	–	–
U2OS [11], 100 nM	–	–	97.8	–	–
U2OS [11], 1000 nM	–	–	100	–	–
U2OS [11], 10000 nM	–	–	97.8	–	–
Vero E6 [10], 1 nM	–	–	99.1	–	–
Vero E6 [10], 10 nM	–	–	98	–	–
Vero E6 [10], 100 nM	–	–	98.4	–	–
Vero E6 [10], 1000 nM	–	–	96.2	–	–
Vero E6 [10], 10000 nM	–	–	99.8	–	–
[12], 0.3 µM	–	96	–	–	–
[12], 3 µM	–	94	–	–	–
[12], 10 µM	–	96	–	–	–
[12], 30 µM	–	91	–	–	–
[13], 0.3 µM	–	–	–	-0.36	–
[13], 3 µM	–	–	–	-0.27	–
[13], 10 µM	–	–	–	-0.07	–
[13], 30 µM	–	–	–	-0.09	–
[14], 0.3 µM	109	–	–	–	–
[14], 3 µM	101	–	–	–	–
[14], 10 µM	90	–	–	–	–
[14], 30 µM	91	–	–	–	–

N=C(N)c1cc2ccc(OC(=O)c3cccs3)cc2s1 [BCX-1470]
Settings	drug sensitivity score	relative viability EC50 [µM]
Caco-2 [1]	0	–
Caco-2 [16]	–	> 10
HepG2 [2]	4.6	–
HepG2 [17]	–	3.32
U2OS [5]	0	–
U2OS [20]	–	> 10
Vero E6 [4]	0	–
Vero E6 [19]	–	> 10

drug-induced phospholipidosis [%], A549-ACE2 [6]
Settings	0.3 µM	0.833333 µM	3.33333 µM	6.66667 µM	10 µM
24 h	1.95	3.92	0.54	7.05	10.8
48 h	1.86	-0.27	-2.94	10.7	17.1
72 h	0.245	-2.66	-0.938	1.04	8.25

Settings	SARS-CoV-2 infection rate, [14] [%]	cell count, [12] [%]	cell viability, Caco-2 [7] [%]	cell viability, HepG2 [8] [%]	cell viability, U2OS [11] [%]	cell viability, Vero E6 [10] [%]	morphology score, [13]
1 nM	–	–	97.9	112	100	97	–
10 nM	–	–	96.1	100	100	95.2	–
100 nM	–	–	95.5	104	98.4	92.8	–
0.3 µM	97	102	–	–	–	–	0.05
1000 nM	–	–	96.5	102	95.9	98.2	–
3 µM	99	99	–	–	–	–	-0.11
10000 nM	–	–	107	13.1	101	96.2	–
10 µM	54	95	–	–	–	–	0.59
30 µM	22	52	–	–	–	–	0.39
